Experiments:
Test in all cases: Kinase binding assay (kinase-tagged T7 phage, qPCR), Kd
FGFR1 = target: T1, FGFR1 (Homo sapiens, UniProt P11362); details: read-out: FGFR1 (Kd nM)
T1 construct: made in house; host or cells: E. coli derived from BL21, infected with T7 phage
Procedure: (§1) Kinase-tagged T7 phage strains were prepared in an E. coli host derived from the BL21 strain. E. coli were grown to log-phase and infected with T7 phage and incubated with shaking at 32° C. until lysis. The lysates were centrifuged and filtered to remove cell debris. […] The liganded beads were blocked with excess biotin and washed with blocking buffer SeaBlock (Pierce), 1% BSA, 0.05% Tween 20, 1 mM DTT to remove unbound ligand and to reduce non-specific binding.
(§2) Kds were determined using an 11-point 3-fold compound dilution series with three DMSO control points. […] The compounds were then diluted directly into the assays such that the final concentration of DMSO was 0.9%. All reactions performed in polypropylene 384-well plate. Each was a final volume of 0.02 ml. […] The kinase concentration in the eluates was measured by qPCR.
(§3) Binding constants were calculated with a standard dose-response curve using the Hill equation: […]
(§4) The Hill Slope was set to −1. Curves were fitted using a non-linear least square fit with the Levenberg-Marquardt algorithm.

FGFR2 = target: T2, FGFR2 (Homo sapiens, UniProt P21802); details: read-out: FGFR2 (Kd nM)
T2 construct: made in house; host or cells: E. coli derived from BL21, infected with T7 phage
Procedure: as §1, §2, §3, §4

FGFR4 = target: T3, FGFR4 (Homo sapiens, UniProt P22455); details: read-out: FGFR4 (Kd nM)
T3 construct: made in house; host or cells: E. coli derived from BL21, infected with T7 phage
Procedure: (§5) Kinase-tagged T7 phage strains were prepared in an E. coli host derived from the BL21 strain. E. coli were grown to log-phase and infected with T7 phage and incubated with shaking at 32° C. until lysis. The lysates were centrifuged and filtered to remove cell debris. Streptavidin-coated magnetic beads were treated with biotinylated small molecule ligands for 30 minutes at room temperature to generate affinity resins for kinase assays. The liganded beads were blocked with excess biotin and washed with blocking buffer SeaBlock (Pierce), 1% BSA, 0.05% Tween 20, 1 mM DTT to remove unbound ligand and to reduce non-specific binding. Binding reactions were assembled by combining kinases, liganded affinity beads, and test compounds in 1× binding buffer (20% SeaBlock, 0.17×PBS, 0.05% Tween 20, 6 mM DTT).
(§6) Test compounds were prepared as 111X stocks in 100% DMSO. Kds were determined using an 11-point 3-fold compound dilution series with three DMSO control points. All compounds for Kd measurements are distributed by acoustic transfer (non-contact dispensing) in 100% DMSO. The compounds were then diluted directly into the assays such that the final concentration of DMSO was 0.9%. All reactions performed in polypropylene 384-well plate. Each was a final volume of 0.02 ml. The assay plates were incubated at room temperature with shaking for 1 hour and the affinity beads were washed with wash buffer (1×PBS, 0.05% Tween 20). The beads were then re-suspended in elution buffer (1×PBS, 0.05% Tween 20, 0.5 μM non-biotinylated affinity ligand) and incubated at room temperature with shaking for 30 minutes. The kinase concentration in the eluates was measured by qPCR.
as §3, §4

FGFR3 = target: T4, FGFR3 (Homo sapiens, UniProt P22607); details: read-out: FGFR3 (Kd nM)
T4 construct: made in house; host or cells: E. coli derived from BL21, infected with T7 phage
Procedure: as §5, §6, §3, §4

T3 sequence (P22455 22-802): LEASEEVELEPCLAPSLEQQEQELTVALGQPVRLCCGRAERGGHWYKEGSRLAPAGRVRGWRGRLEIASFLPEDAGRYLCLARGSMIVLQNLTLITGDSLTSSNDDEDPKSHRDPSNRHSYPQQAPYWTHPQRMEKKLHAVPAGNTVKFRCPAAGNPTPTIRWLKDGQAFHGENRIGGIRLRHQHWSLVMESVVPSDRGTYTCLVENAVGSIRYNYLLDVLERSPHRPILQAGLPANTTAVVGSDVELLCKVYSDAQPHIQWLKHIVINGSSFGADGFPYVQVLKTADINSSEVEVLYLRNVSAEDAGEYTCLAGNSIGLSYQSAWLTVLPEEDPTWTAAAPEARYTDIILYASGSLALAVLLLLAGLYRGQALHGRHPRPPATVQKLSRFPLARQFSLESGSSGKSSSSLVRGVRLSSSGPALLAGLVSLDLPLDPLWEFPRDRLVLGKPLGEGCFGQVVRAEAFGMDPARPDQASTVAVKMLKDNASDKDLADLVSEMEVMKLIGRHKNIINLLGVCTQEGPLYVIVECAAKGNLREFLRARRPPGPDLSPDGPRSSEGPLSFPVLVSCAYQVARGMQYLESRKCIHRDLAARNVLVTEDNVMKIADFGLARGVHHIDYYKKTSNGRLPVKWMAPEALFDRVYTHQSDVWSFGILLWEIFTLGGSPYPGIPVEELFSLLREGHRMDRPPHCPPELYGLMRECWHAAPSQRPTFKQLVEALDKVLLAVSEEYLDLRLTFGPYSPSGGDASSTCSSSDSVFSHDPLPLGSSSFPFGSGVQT
T1 sequence (P11362 22-822): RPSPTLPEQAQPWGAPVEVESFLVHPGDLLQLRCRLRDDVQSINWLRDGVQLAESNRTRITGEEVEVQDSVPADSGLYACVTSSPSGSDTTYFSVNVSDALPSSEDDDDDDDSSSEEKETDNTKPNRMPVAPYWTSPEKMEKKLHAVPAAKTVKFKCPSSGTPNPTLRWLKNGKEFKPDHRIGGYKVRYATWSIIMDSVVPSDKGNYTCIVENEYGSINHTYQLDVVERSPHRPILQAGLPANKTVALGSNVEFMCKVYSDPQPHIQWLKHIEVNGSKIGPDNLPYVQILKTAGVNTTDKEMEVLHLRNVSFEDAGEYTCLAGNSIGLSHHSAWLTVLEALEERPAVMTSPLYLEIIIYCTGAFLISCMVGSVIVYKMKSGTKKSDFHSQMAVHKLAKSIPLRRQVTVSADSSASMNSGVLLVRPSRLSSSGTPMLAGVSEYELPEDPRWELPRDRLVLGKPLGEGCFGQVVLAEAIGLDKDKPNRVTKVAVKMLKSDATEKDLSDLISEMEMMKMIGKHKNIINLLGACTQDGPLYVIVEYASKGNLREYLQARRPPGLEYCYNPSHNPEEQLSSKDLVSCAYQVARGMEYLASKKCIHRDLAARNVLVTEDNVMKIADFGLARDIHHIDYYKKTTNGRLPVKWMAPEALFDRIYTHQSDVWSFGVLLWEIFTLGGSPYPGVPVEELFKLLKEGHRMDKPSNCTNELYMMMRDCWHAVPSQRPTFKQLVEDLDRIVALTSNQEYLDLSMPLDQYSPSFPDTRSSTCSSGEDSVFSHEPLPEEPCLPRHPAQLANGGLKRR
T4 sequence (P22607 23-806): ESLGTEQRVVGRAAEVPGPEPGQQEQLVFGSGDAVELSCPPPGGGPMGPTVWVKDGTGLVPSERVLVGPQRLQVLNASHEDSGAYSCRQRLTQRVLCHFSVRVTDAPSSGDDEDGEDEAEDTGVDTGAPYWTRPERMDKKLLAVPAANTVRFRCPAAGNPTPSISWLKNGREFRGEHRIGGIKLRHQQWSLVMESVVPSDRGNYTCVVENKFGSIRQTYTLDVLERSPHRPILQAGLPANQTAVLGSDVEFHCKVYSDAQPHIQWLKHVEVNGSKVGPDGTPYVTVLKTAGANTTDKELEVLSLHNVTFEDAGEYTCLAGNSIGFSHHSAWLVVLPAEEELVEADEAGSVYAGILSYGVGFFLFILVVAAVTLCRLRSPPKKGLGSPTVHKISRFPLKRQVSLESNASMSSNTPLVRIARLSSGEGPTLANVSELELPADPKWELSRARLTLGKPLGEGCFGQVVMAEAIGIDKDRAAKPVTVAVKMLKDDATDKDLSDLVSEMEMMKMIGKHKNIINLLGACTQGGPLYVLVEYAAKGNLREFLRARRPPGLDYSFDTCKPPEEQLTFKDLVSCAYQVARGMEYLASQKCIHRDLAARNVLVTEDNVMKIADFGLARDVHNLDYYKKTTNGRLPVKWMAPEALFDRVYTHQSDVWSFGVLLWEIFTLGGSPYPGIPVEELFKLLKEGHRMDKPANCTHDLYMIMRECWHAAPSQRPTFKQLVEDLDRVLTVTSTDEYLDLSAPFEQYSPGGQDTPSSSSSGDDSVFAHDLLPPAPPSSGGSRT
T2 sequence (P21802 22-821): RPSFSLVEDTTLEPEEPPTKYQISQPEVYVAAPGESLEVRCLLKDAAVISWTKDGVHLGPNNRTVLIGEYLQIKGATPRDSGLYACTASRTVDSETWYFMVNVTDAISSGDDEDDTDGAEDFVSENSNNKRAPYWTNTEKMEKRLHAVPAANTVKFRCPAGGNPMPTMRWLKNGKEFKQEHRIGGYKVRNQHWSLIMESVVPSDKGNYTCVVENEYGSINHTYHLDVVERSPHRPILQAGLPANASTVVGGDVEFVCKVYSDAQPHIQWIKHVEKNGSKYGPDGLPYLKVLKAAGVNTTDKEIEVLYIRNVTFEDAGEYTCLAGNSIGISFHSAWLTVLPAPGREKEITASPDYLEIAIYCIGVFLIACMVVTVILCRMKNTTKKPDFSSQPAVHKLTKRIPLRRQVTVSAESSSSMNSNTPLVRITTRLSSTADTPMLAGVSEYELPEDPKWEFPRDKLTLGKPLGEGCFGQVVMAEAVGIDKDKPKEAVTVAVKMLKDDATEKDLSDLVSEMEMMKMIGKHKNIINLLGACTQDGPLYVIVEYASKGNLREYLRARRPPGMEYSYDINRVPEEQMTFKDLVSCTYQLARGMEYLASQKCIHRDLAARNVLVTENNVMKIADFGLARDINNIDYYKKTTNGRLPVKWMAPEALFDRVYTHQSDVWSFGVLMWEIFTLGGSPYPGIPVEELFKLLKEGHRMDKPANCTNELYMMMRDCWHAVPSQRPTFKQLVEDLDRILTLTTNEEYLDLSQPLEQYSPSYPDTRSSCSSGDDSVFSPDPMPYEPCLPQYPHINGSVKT

SMILES	Kd (FGFR1)	Kd (FGFR2)	Kd (FGFR4)	Kd (FGFR3)
COc1ncc(-c2n[nH]c3ccc(O[C@H](C)c4c(Cl)cncc4Cl)cc23)cc1N [Example 1, 5-[5-[(1R)-1-(3,5-dichloro-4-pyridyl)ethoxy]-1H-indazol-3-yl]-2-methoxy-pyridin-3-amine]	100 to 250 nM	100 to 250 nM	0.1 to 100 nM	0.1 to 100 nM
COc1ncc(-c2n[nH]c3ccc(O[C@H](C)c4c(Cl)cncc4Cl)cc23)cc1NC(=O)c1ccccn1 [Example 2, (R)—N-(5-(5-(1-(3,5-Dichloropyridin-4-yl)ethoxy)-1H-indazol-3-yl)-2-methoxypyridin-3-yl)picolinamide]	> 1000 nM	> 1000 nM	0.1 to 100 nM	> 1000 nM
COc1ncc(-c2n[nH]c3ccc(O[C@H](C)c4c(Cl)cncc4Cl)cc23)cc1NC(=O)c1cccc2cccnc12 [Example 3, (R)—N-(5-(5-(1-(3,5-Dichloropyridin-4-yl)ethoxy)-1H-indazol-3-yl)-2-methoxypyridin-3-yl)quinoline-8-carboxamide]	> 1000 nM	> 1000 nM	250 to 1000 nM	> 1000 nM
COc1ncc(-c2n[nH]c3ccc(O[C@H](C)c4c(Cl)cncc4Cl)cc23)cc1NCc1ccccn1 [Example 4, (R)-5-(5-(1-(3,5-Dichloropyridin-4-yl)ethoxy)-1H-indazol-3-yl)-2-methoxy-N-(pyridin-2-ylmethyl)pyridin-3-amine]	> 1000 nM	> 1000 nM	250 to 1000 nM	250 to 1000 nM
COc1ncc(-c2n[nH]c3ccc(O[C@H](C)c4c(Cl)cncc4Cl)cc23)cc1NC(=O)N1CCOCC1 [Example 5, (R)—N-(5-(5-(1-(3,5-Dichloropyridin-4-yl)ethoxy)-1H-indazol-3-yl)-2-methoxypyridin-3-yl)morpholine-4-carboxamide]	> 1000 nM	100 to 250 nM	0.1 to 100 nM	250 to 1000 nM
COc1ncc(-c2n[nH]c3ccc(O[C@H](C)c4c(Cl)cncc4Cl)cc23)cc1NCc1ccnc(C)c1 [Example 6, (R)-5-(5-(1-(3,5-Dichloropyridin-4-yl)ethoxy)-1H-indazol-3-yl)-2-methoxy-N-((2-methylpyridin-4-yl)methyl)pyridin-3-amine]	> 1000 nM	> 1000 nM	250 to 1000 nM	> 1000 nM
COc1ncc(-c2n[nH]c3ccc(O[C@H](C)c4c(Cl)cncc4Cl)cc23)cc1NC(=O)N1CCN(C)CC1 [Example 7, (R)—N-(5-(5-(1-(3,5-Dichloropyridin-4-yl)ethoxy)-1H-indazol-3-yl)-2-methoxypyridin-3-yl)-4-methylpiperazine-1-carboxamide]	> 1000 nM	> 1000 nM	0.1 to 100 nM	100 to 250 nM
C[C@@H](Oc1ccc2[nH]nc(-c3ccc(S(C)(=O)=O)nc3)c2c1)c1c(Cl)cncc1Cl [Example 10, (R)-5-(1-(3,5-Dichloropyridin-4-yl)ethoxy)-3-(6-(methylsulfonyl)pyridin-3-yl)-1H-indazole]	0.1 to 100 nM	0.1 to 100 nM	0.1 to 100 nM	0.1 to 100 nM
C[C@@H](Oc1ccc2[nH]nc(-c3ccc(NC(=O)C4CC4)nc3)c2c1)c1c(Cl)cncc1Cl [Example 11, (R)—N-(5-(5-(1-(3,5-Dichloropyridin-4-yl)ethoxy)-1H-indazol-3-yl)pyridin-2-yl)cyclopropanecarboxamide]	0.1 to 100 nM	100 to 250 nM	0.1 to 100 nM	0.1 to 100 nM
C[C@@H](Oc1ccc2[nH]nc(-c3ccc(C(N)=O)nc3)c2c1)c1c(Cl)cncc1Cl [Example 12, 5-[5-[(1R)-1-(3,5-dichloro-4-pyridyl)ethoxy]-1H-indazol-3-yl]pyridine-2-carboxamide]	0.1 to 100 nM	0.1 to 100 nM	0.1 to 100 nM	0.1 to 100 nM
C[C@@H](Oc1ccc2[nH]nc(-c3ccc(NC(=O)N(C)C)nc3)c2c1)c1c(Cl)cncc1Cl [Example 14, 3-[5-[5-[(1R)-1-(3,5-dichloro-4-pyridyl)ethoxy]-1H-indazol-3-yl]-2-pyridyl]-1,1-dimethyl-urea]	0.1 to 100 nM	0.1 to 100 nM	0.1 to 100 nM	0.1 to 100 nM
COc1ncc(-c2n[nH]c3ccc(O[C@H](C)c4c(Cl)cncc4Cl)cc23)cc1NC(=O)CN(C)C [Example 15, N-[5-[5-[(1R)-1-(3,5-dichloro-4-pyridyl)ethoxy]-1H-indazol-3-yl]-2-methoxy-3-pyridyl]-2-(dimethylamino)acetamide]	> 1000 nM	> 1000 nM	0.1 to 100 nM	100 to 250 nM

Next, values leading:

Kd (FGFR1)	Kd (FGFR2)	Kd (FGFR4)	Kd (FGFR3)	SMILES
250 to 1000 nM	250 to 1000 nM	0.1 to 100 nM	100 to 250 nM	C[C@@H](Oc1ccc2[nH]nc(-c3cnc4c(c3)N(C(=O)N3CCOCC3)CCO4)c2c1)c1c(Cl)cncc1Cl [Example 18, [7-[5-[(1R)-1-(3,5-dichloro-4-pyridyl)ethoxy]-1H-indazol-3-yl]-2,3-dihydropyrido[2,3-b][1,4]oxazin-1-yl]-morpholino-methanone]
0.1 to 100 nM	0.1 to 100 nM	0.1 to 100 nM	0.1 to 100 nM	C[C@@H](Oc1ccc2[nH]nc(-c3ccc(NC(=O)N4CCN(C)CC4)nc3)c2c1)c1c(Cl)cncc1Cl [Example 19, N-[5-[5-[(1R)-1-(3,5-dichloro-4-pyridyl)ethoxy]-1H-indazol-3-yl]-2-pyridyl]-4-methyl-piperazine-1-carboxamide]
> 1000 nM	> 1000 nM	0.1 to 100 nM	250 to 1000 nM	C[C@@H](Oc1ccc2[nH]nc(-c3cnc4c(c3)N(C(=O)CN(C)C)CCO4)c2c1)c1c(Cl)cncc1Cl [Example 21, 1-[7-[5-[(1R)-1-(3,5-dichloro-4-pyridyl)ethoxy]-1H-indazol-3-yl]-2,3-dihydropyrido[2,3-b][1,4]oxazin-1-yl]-2-(dimethylamino)ethanone]
0.1 to 100 nM	0.1 to 100 nM	0.1 to 100 nM	0.1 to 100 nM	C[C@@H](Oc1ccc2[nH]nc(-c3cnc(NC(=O)CN(C)C)c(F)c3)c2c1)c1c(Cl)cncc1Cl [Example 22, N-[5-[5-[(1R)-1-(3,5-dichloro-4-pyridyl)ethoxy]-1H-indazol-3-yl]-3-fluoro-2-pyridyl]-2-(dimethylamino)acetamide]
> 1000 nM	> 1000 nM	0.1 to 100 nM	250 to 1000 nM	Cc1cc(C(=O)N2CCOc3ncc(-c4n[nH]c5ccc(O[C@H](C)c6c(Cl)cncc6Cl)cc45)cc32)ccn1 [Example 23, [7-[5-[(1R)-1-(3,5-dichloro-4-pyridyl)ethoxy]-1H-indazol-3-yl]-2,3-dihydro-pyrido[2,3-b][1,4]oxazin-1-yl]-(2-methyl-4-pyridyl)methanone]
0.1 to 100 nM	0.1 to 100 nM	0.1 to 100 nM	0.1 to 100 nM	C[C@@H](Oc1ccc2[nH]nc(-c3ccc(NC(=O)N4CCC(O)C4)nc3)c2c1)c1c(Cl)cncc1Cl (stereo partly drawn) [Example 24, N-[5-[5-[(1R)-1-(3,5-dichloro-4-pyridyl)ethoxy]-1H-indazol-3-yl]-2-pyridyl]-3-hydroxy-pyrrolidine-1-carboxamide]
100 to 250 nM	250 to 1000 nM	0.1 to 100 nM	0.1 to 100 nM	CC(C)OC(=O)Nc1ccc(-c2n[nH]c3ccc(O[C@H](C)c4c(Cl)cncc4Cl)cc23)cn1 [Example 27, isopropyl N-[5-[5-[(1R)-1-(3,5-dichloro-4-pyridyl)ethoxy]-1H-indazol-3-yl]-2-pyridyl]carbamate]
0.1 to 100 nM	0.1 to 100 nM	0.1 to 100 nM	0.1 to 100 nM	C[C@@H](Oc1ccc2[nH]nc(-c3ccnc(N)c3)c2c1)c1c(Cl)cncc1Cl [Example 29, 4-[5-[(1R)-1-(3,5-dichloro-4-pyridyl)ethoxy]-1H-indazol-3-yl]pyridin-2-amine]
0.1 to 100 nM	0.1 to 100 nM		0.1 to 100 nM	COc1cc(C#N)cc(-c2n[nH]c3cc(OC)c(O[C@H](C)c4c(C)cnnc4C)cc23)c1 [Example 101, (R)-3-(5-(1-(3,5-dimethylpyridazin-4-yl)ethoxy)-6-methoxy-1H-indazol-3-yl)-5-methoxybenzonitrile]
